# “Also recorded” adds a separate entry of the source. Where a name gives a salt, the structure may show the parent alone.
# What was measured:
# tobacco seeds = experiment: Seed germination on medium containing the selection agent; assay type: in vivo, Nicotiana tabacum
# From the text: Lack of pleiotropic effects. […] They grew normally, flowered and set seeds. […] […] This may be due to the presence of an active endogenous BADH or similar enzymatic activity in non-green plastids during germination.
# resistant tobacco clones [1] = details: Eibl et al. 1999; Sidorov et al. 1999; cited from earlier work
# [2] = test system: untransformed N. tabacum Petit Havana leaf discs; experiment: Toxicity of the selection agent to untransformed control leaf discs; assay type: cell-based, Nicotiana tabacum; details: for effect on leaf discs under selection: RMOP selection medium
# From the text: A. N. tabacum Petit Havana control in RMOP medium containing spectinomycin after 45 days. B. Bombarded leaf discs selected on spectinomycin in RMOP medium after 45 days. C. Spectinomycin resistant clones cultured again ([…]) to obtain homoplasmy. D. Petit Havana control in RMOP medium containing betaine aldehyde after 12 days of culture. E. Bombarded leaf discs selected on betaine aldehyde in RMOP medium after 12 days of culture; arrow indicates unbombarded leaf disc as control. Note that 23 shoots are formed on a disc selected on betain aldehyde against 1-2 shoots per disc on spectinomycin. F. Betaine aldehyde resistant clones cultured again (second round) to obtain homoplasmy. G. Selection on 10 mM betaine aldehyde of untransformed (1) and transgenic (2-4) leaf discs.
# (§1) Leaves were placed abaxial side up on Whatman No. 1 filter papers laying on the RMOP medium (Daniell 1993) in standard petri plates (100×15 mm) for bombardment. Microprojectiles were coated with plasmid DNA (pLD-BADH) and bombardments were carried out with the biolistic device PDS 1000/He (Bio-Rad) as described by Daniell (1997). Following bombardment, petri plates were sealed with parafilm and incubated at 24° C. under 16 hour photoperiod. Two days after bombardment, leaves were chopped into small pieces of ˜5 mm^2 in size and placed on the selection medium (RMOP containing 500 μg/ml of spectinomycin dihydrochloride or 5-10 mM betaine aldehyde) with abaxial side touching the medium in deep (100×25 mm) petri plates. The regenerated resistant shoots were chopped into small pieces (˜2 mm^2) and subcloned into fresh deep petri plates containing the same selection medium. Resistant shoots from the second culture cycle were transferred to the rooting medium (MSO medium supplemented with IBA, 1 mg/liter containing appropriate selectable marker). Rooted plants were transferred to soil and grown at 26° C. under 16 hour photoperiod.
# (§2) The entire process of regeneration, starting from bombardment until transfer to soil, takes about 3-6 months for spectinomycin selection and 2-3 months for betaine aldehyde selection. FIG. 3 and Table 1 show differences between the two selection processes. […] Leaf disks in FIG. 3 under betaine aldehyde selection appear partially green because they were photographed 12 days after the initiation of the selection process whereas the disc photographed on spectinomycin were 45 days after initiation of the selection process. In spite of the short period of selection one leaf disk was almost bleached (FIG. 3D) and all of them were killed after 30 days. Under 10 mM betaine aldehyde selection, control untransformed samples were killed (turned black, 3G-1) whereas transgenic leaves produced new shoots (FIG. 3G, 2-4).
# [3] = test system: Tobacco (Nicotiana tabacum var. Petit Havana) leaf discs; experiment: Selection of bombarded tobacco leaf discs on RMOP selection medium (chloroplast transformation with pLD-BADH); assay type: cell-based; details: for time until resistant clones formed green shoots: after initiation of selection; for leaf discs responded / resistant shoots per responding leaf disk: bombarded leaf discs under selection; for average resistant shoots per plate: spectinomycin after 45 days; for resistant shoots regenerated overall: ten bombardments (spectinomycin), six bombardments (betaine aldehyde)
# From the text: Expression cassettes of the chloroplast integration vector contain the chimeric aadA gene and the BADH gene driven by the constitutive 16S rRNA promoter and regulated by the 3′ untranslated region of the plastid psbA gene. The chimeric aadA gene encoding aminoglycoside 3′ adenyltransferase confers spectinomycin resistance in chloroplasts enabling selection of the transformants on spectinomycin dihydrochloride. On the other hand, BADH converts the toxic betaine aldehyde in cells to glycine betaine. When present, this pathway is compartmentalized within chloroplasts (Nuccio, et al. 1999). To facilitate translation of the dicistronic mRNA, independent Shine-Dalgarno (SD) sequences were provided to the aadA and BADH genes upstream of the initiation codons. In order to accurately compare transformation efficiency of both selectable markers under identical bombardment and transformation conditions, aadA and BADH genes were inserted into the same vector, at the same site. Bombarded leaves were treated in identical manner except the addition of selection reagent.
# Tobacco (Nicotiana tabacum var. Petit Havana) was grown aseptically by germination of seeds in MSO medium. This medium contains MS salts (4.3 g/liter), B5 vitamin mixture (myoinositol, 100 mg/liter; thiamine-HCl, 10 mg/liter; nicotinic acid, 1 mg/liter; pyridoxine-HCl, 1 mg/liter), sucrose (30 g/liter) and phytagar (6 g/liter) at pH 5.8. Fully expanded, dark green leaves of about two month old plants were used for bombardment.
# as §1, §2
# When the leaf discs were selected for spectinomycin resistance, only 15% of the discs responded and an average of one resistant shoot per plate was observed after 45 days. From each callus, all resistant shoots are considered to represent an individual clone. Under betaine aldehyde selection 80% of the discs responded and an average of 25 resistant shoots per plate was observed. […]
# resistant tobacco clones [4] = experiment: PCR screening of resistant clones for chloroplast integration; parameters: species or system Nicotiana tabacum
# From the text: Integration of a foreign gene into the chloroplast genome was confirmed by PCR screening of chloroplast transformants (FIG. 4). Primers were designed to eliminate mutants, nuclear integration and to determine whether the integration of foreign genes had occurred in the chloroplast genome at the directed site by homologous recombination. The strategy to distinguish between nuclear and chloroplast transgenic plants was to land one primer (3P) on the native chloroplast genome adjacent to the point of integration and the second primer (3M) on the aadA gene (FIG. 1). This primer set generated 1.6 kb PCR product in chloroplast transformants (FIG. 4). Because this product cannot be obtained in nuclear transgenic plants, the possibility of nuclear integration can be eliminated. […] The rest of the resistant shoots may be either escapes or nuclear transformants. […] In contrast, nearly 60% of the spectinomycin resistant clones were mutants. Other labs have recently reported as high as 90% mutants among spectinomycin resistant clones (Eibl et al. 1999; Sidorov et al. 1999).
structure (smiles),measurement,setting,value
"CN[C@@H]1[C@H](O)[C@H](NC)[C@H]2O[C@@]3(O)C(=O)C[C@@H](C)O[C@H]3O[C@@H]2[C@H]1O [Spectinomycin, spectinomycin dihydrochloride]",germination of seeds from chloroplast transgenic plants,"tobacco seeds; MS medium, 500 μg/ml spectinomycin",germinated and grew normally
same,"mutants among resistant clones, other labs",resistant tobacco clones [1],≤ 90%
same,effect on leaf discs under selection,[2],leaf discs continued to grow but pigments were bleached
same,"entire process of regeneration, bombardment until transfer to soil",[3],3-6 months
same,time until resistant clones formed green shoots,[3],about 45 days
same,leaf discs responded,[3],15%
same,average resistant shoots per plate,[3],one
same,resistant shoots regenerated overall,[3],10
same,mutants among resistant clones,resistant tobacco clones [4]; applicant's clones,~60%
C[N+](C)(C)CC=O [betaine aldehyde],germination of untransformed seeds,tobacco seeds; betaine aldehyde 10-15 mM,germinated
same,effect on untransformed leaf discs,[2]; 10 mM betaine aldehyde,death of untransformed leaf disc; also recorded: killed
same,time after which all control leaf disks were killed,[2]; Petit Havana control in RMOP with betaine aldehyde,30 days
same,effect on leaf discs under selection,[2],growth of the leaf discs was completely inhibited and photosynthetic pigments were degraded
same,"entire process of regeneration, bombardment until transfer to soil",[3],2-3 months
same,time until resistant clones formed green shoots,[3],≤ 12 days
same,efficiency of transformation relative to spectinomycin selection,[3]; betaine aldehyde vs spectinomycin selection,25 fold
same,leaf discs responded,[3],80%
same,resistant shoots per responding leaf disk,[3],≤ 23
same,resistant shoots per responding leaf disk,[3]; listed as betain aldehyde,23
same,average resistant shoots per plate,[3],25
same,resistant shoots regenerated overall,[3],more than 150
same,resistant clones with foreign genes integrated into the chloroplast genome (PCR),resistant tobacco clones [4]; after the first culture cycle,11 out of 15

# Source: US20110072541A1, “MARKER FREE TRANSGENIC PLANTS ENGINEERING THE CHLOROPLAST GENOME WITHOUT THE USE OF ANTIBIOTIC SELECTION” (priority 2000, published 2011)
